The target of this test is T1, human cloned 5-HT6 receptors (Homo sapiens, UniProt P50406).
T1 construct: expressed in transfected cells
Kind of test: 5-HT6 receptor affinity (procedures outlined in WO98/27081). The settings on record: read-out: pKi values at human cloned 5-HT6 receptors (converted). The test is classed as binding. An excerpt: Compounds can be tested following the procedures outlined in WO98/27081.

This note sets out measurements from patent US7439245B2, “Compounds” (Glaxo Group Limited, priority 2003, dated 2008).

T1 sequence (P50406 whole entry): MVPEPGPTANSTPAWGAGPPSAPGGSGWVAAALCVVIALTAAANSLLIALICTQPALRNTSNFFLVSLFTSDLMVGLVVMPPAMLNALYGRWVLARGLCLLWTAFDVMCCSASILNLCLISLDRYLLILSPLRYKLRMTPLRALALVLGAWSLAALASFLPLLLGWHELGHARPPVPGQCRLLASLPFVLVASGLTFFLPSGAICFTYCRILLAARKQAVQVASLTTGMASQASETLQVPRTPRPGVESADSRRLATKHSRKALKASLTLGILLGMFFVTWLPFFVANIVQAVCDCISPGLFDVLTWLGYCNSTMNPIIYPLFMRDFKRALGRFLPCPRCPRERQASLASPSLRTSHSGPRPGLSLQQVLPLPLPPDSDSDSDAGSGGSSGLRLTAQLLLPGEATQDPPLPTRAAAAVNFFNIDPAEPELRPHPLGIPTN

With `O=S(=O)(c1ccccc1)c1cccc(N2CCNCC2)c1Cl` [Example E2, 1-(3-Phenylsulfonyl-2-chlorophenyl)piperazine], the Ki is less than 10 nM.

Consider `O=S(=O)(c1ccccc1)c1cccc(N2CCNCC2)c1` [Example E1, 1-(3-Phenylsulfonyl-phenyl)piperazine], for which the Ki was less than 10 nM.
